The values that follow are results of earlier work, collected in patent US11293915B2, “Bio-adhesive gels and methods of use” (Cornell University, priority 2014, dated 2022).

For this data set the following is noted: DTT incorporated hydrogels, DTT concentrations up to 70 mM.

Each structure is given as a SMILES string.

Consider `O[C@H](CS)[C@H](O)CS` (racemic) [DTT, dithiothreitol], for which the cytotoxicity result is “do not cause significant cytotoxicity”.
